# Measured values: patent US20240373877A1, “ANIMAL FOOD PRODUCT AND METHOD AND APPARATUS THEREFOR” (priority 2023, published 2024)
# Key:
# bovine rumen microbes = test: Rumen microbial methane production in bovine rumen incubations; assay type: cell-based; conditions: Yeast 2%, Monensin 10 μM
# Experimental: THYM was also found to have a very pronounced inhibition of methane production by rumen microbes.
# Bovine rumen microbes were incubated anaerobically for 24 hours at 39° C. with a silage: corn substrate. Bar A indicates basal control incubation, and bars B-G indicate additions. […] Monensin (Rumensin) was used as a positive inhibitory control. The hop acid content of the THYM samples in incubation bars E & F was 100 and 60 μg/ml for alpha and beta acids respectively, similar to the concentrations of alpha and beta acids, 100 μg/ml, added in bars B and C.
# [1] = Beef cattle feed trial (weight gain, feed efficiency, BUN); assay type: in vivo, Weanling Angus-X steers
smiles,measurement,setting,value
"CC[C@@]1([C@@H]2O[C@@H]([C@H]3O[C@@](O)(CO)[C@H](C)C[C@@H]3C)C[C@@H]2C)CC[C@H]([C@]2(C)CC[C@]3(C[C@H](O)[C@@H](C)[C@@H]([C@@H](C)[C@@H](OC)[C@H](C)C(=O)O)O3)O2)O1 [Monensin, monensin]",inhibition at 10 µM,"bovine rumen microbes; THYM 0.4% (of DM), vs paired control, p < 0.05",68%
same,"Methane Production, Experiment AVG","bovine rumen microbes; THYM 0.4%, N = 3 or 4",11152 ppm
same,Average Daily Gain,"[1]; 9 weeks, monensin 200 mg/animal or 1% THYM in rations",1.65 kg/day
same,Gain to Feed Ratio,"[1]; 9 weeks, monensin 200 mg/animal or 1% THYM in rations, M & T vs C p = 0.07",0.38 kg/kg
same,blood urea nitrogen (BUN) level,"[1]; feed trial, FIG. 6",significantly lower
